This is an account of results in patent US20240166693A1, “METHODS AND COMPOUNDS FOR MODULATING MYOTONIC DYSTROPY 1” (Design Therapeutics, Inc., priority 2020, published 2024).

A word on the EC50: it is the concentration that produces a half-maximal response.

Each structure is given as a SMILES string. A value given as a limit tells only on which side of the number the result lay.

In one test the test system is Myotonic Dystrophy 1 affected patient fibroblasts (Coriell GM04602; 1600 CTG repeats). Put plainly: DM1 foci reduction assay (CAG10-Cy3 FISH, average foci per nucleus). The test is classed as cell-based. The conditions noted are these: Homo sapiens, Fibroblast, 48 h, read-out: Foci Reduction in Fibroblast EC50, 48 h (nM). The gist of the method: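 DM1 patient fibroblasts (GM04602, 1600 CTG) treated 48 h at 37 °C, 8-point 1:3 dilutions from 3 μM top dose; wild-type GM07492 as control. PFA-fixed, ethanol-permeabilized cells hybridized overnight with 5 nM CAG10-Cy3 probe, DAPI-counterstained, imaged at 20× in 4 fields; average foci per nucleus per well.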
Take `CC(C)C[C@H](NC(=O)[C@H](C)NC(=O)[C@H](Cc1ccccc1)NC(=O)c1ccc(C(C)(C)C)cc1)C(=O)N[C@@H](CCCCN(C)C1CC2CCC1C2)C(=O)N[C@@H](CO)C(=O)NCCOCCOCCNC(=O)c1cc(NC(=O)c2cc(NC(=O)c3nc(NC(=O)c4cc(NC(=O)[C@@H](N)CCNC(=O)c5nc(NC(=O)c6cc(NC(=O)c7cc(NC(=O)c8nccn8C)cn7C)cn6C)cn5C)cn4C)cn3C)cn2C)cn1C` (stereo partly drawn) [Compound 118]: the EC50 is over 500 nM.

In the case of `CCN(CC)CCCC[C@H](NC(=O)[C@H](CC(C)C)NC(=O)[C@H](C)NC(=O)[C@H](Cc1ccccc1)NC(=O)c1ccc(C(C)(C)C)cc1)C(=O)N[C@@H](CO)C(=O)NCCOCCOCCOCCOCCOCCNC(=O)c1cc(NC(=O)c2nc(NC(=O)c3cc(NC(=O)CCCNC(=O)c4nc(NC(=O)CCNC(=O)c5cc(NC(=O)c6nccn6C)cn5C)cn4C)cn3C)cn2C)cn1C` [Compound 115], the EC50 is over 500 nM.

For `CCN(CC)CCCC[C@H](NC(=O)[C@H](CC(C)C)NC(=O)[C@H](C)NC(=O)[C@H](Cc1ccccc1)NC(=O)c1ccc(C(C)(C)C)cc1)C(=O)N[C@@H](CO)C(=O)NCCOCCOCCOCCOCCOCCNC(=O)c1cc(NC(=O)c2cc(NC(=O)c3nc(NC(=O)c4cc(NC(=O)[C@@H](N)CCNC(=O)c5nc(NC(=O)c6cc(NC(=O)c7cc(NC(=O)c8nccn8C)cn7C)cn6C)cn5C)cn4C)cn3C)cn2C)cn1C` [Compound 55], the EC50 was over 500 nM.

As for `CCN(CC)CCCC[C@H](NC(=O)[C@H](CC(C)C)NC(=O)[C@H](C)NC(=O)[C@H](Cc1ccccc1)NC(=O)c1ccc(C(C)(C)C)cc1)C(=O)N[C@@H](CO)C(=O)NCCOCCOCCOCCOCCN1CCN(C2CCN(C(=O)CCNC(=O)c3nc(NC(=O)c4cc(NC(=O)CCNC(=O)c5nc(NC(=O)CCCNC(=O)c6cc(NC(=O)c7nc(NC(=O)CCNC(=O)c8cc(NC(=O)c9nccn9C)cn8C)cn7C)cn6C)cn5C)cn4C)cn3C)CC2)CC1` [Compound 186], the EC50 is over 500 nM.

As to `CCN(CC)CCCC[C@H](NC(=O)[C@H](CC(C)C)NC(=O)[C@H](C)NC(=O)[C@H](Cc1ccccc1)NC(=O)c1ccc(C(C)(C)C)cc1)C(=O)N[C@@H](CO)C(=O)NCCOCCNCC#CC#Cc1ccc(NC(=O)CCNC(=O)c2nc(NC(=O)c3cc(NC(=O)CCNC(=O)c4nc(NC(=O)CCCNC(=O)c5cc(NC(=O)c6nc(NC(=O)CCNC(=O)c7cc(NC(=O)c8nccn8C)cn7C)cn6C)cn5C)cn4C)cn3C)cn2C)cc1` [Compound 98], the half-maximal effective concentration (EC50) was over 500 nM.

Take `CCN(CC)CCCC[C@H](NC(=O)[C@H](CC(C)C)NC(=O)[C@H](C)NC(=O)[C@H](Cc1ccccc1)NC(=O)c1ccccc1C)C(=O)N[C@@H](CO)C(=O)NCCOCCOCCOCCOCCOCCNC(=O)CCNC(=O)c1nc(NC(=O)c2cc(NC(=O)CCNC(=O)c3nc(NC(=O)CCCNC(=O)c4cc(NC(=O)c5nc(NC(=O)CCNC(=O)c6cc(NC(=O)c7nccn7C)cn6C)cn5C)cn4C)cn3C)cn2C)cn1C` [Compound 86]: the EC50 was under 100 nM.

Consider `CCN(CC)CCCC[C@H](NC(=O)N1CC(c2cnc(CNC(=O)c3ccc(C(C)(C)C)cc3)[nH]2)C1)C(=O)N[C@@H](CO)C(=O)NCCOCCOCCOCCOCCOCCNC(=O)CCNC(=O)c1nc(NC(=O)c2cc(NC(=O)CCNC(=O)c3nc(NC(=O)CCCNC(=O)c4cc(NC(=O)c5nc(NC(=O)CCNC(=O)c6cc(NC(=O)c7nccn7C)cn6C)cn5C)cn4C)cn3C)cn2C)cn1C` [Compound 155], for which the EC50 was in the range of 100 to 500 nM.

Regarding `CCN(CC)CCCC[C@H](NC(=O)[C@H](CC(C)C)NC(=O)[C@H](C)NC(=O)[C@H](Cc1ccccc1)NC(=O)c1ccc(C(C)(C)C)cc1)C(=O)N[C@@H](CO)C(=O)NCCOCCOCCOCCOCCOCCNC(=O)c1nc(NC(=O)CCNC(=O)c2cc(NC(=O)c3nc(NC(=O)[C@@H](CCNC(=O)c4cc(NC(=O)c5nc(NC(=O)c6cc(NC(=O)c7cccn7C)cn6C)cn5C)cn4C)NC(C)=O)cn3C)cn2C)cn1C` [Compound 109], the EC50 is over 500 nM.

As to `CCN(CC)CCCC[C@H](NC(=O)[C@H](CC(C)C)NC(=O)[C@H](C)NC(=O)[C@H](Cc1ccccc1)NC(=O)c1ccc(C(C)(C)C)cc1)C(=O)N[C@@H](CO)C(=O)NCCOCCOCCOCCOCCOCCNC(=O)c1cc(NC(=O)c2nc(NC(=O)c3cc(NC(=O)[C@H](CCNC(=O)c4nc(NC(=O)CCNC(=O)c5cc(NC(=O)c6nccn6C)cn5C)cn4C)NC(C)=O)cn3C)cn2C)cn1C` [Compound 117], the half-maximal effective concentration (EC50) was over 500 nM.

Consider `CCN(CC)CCCC[C@H](NC(=O)COCCOCCOCCNC(=O)c1ccc(C(C)(C)C)cc1)C(=O)N[C@@H](CO)C(=O)NCCOCCOCCOCCOCCOCCNC(=O)CCNC(=O)c1nc(NC(=O)c2cc(NC(=O)CCNC(=O)c3nc(NC(=O)CCCNC(=O)c4cc(NC(=O)c5nc(NC(=O)CCNC(=O)c6cc(NC(=O)c7nccn7C)cn6C)cn5C)cn4C)cn3C)cn2C)cn1C` [Compound 140], for which the EC50 was in the range of 100 to 500 nM.

`CCN(CC)CCCC[C@H](NC(=O)[C@H](CC(C)C)NC(=O)[C@H](C)NC(=O)[C@H](Cc1ccccc1)NC(=O)c1ccc(C(C)(C)C)cc1)C(=O)N[C@@H](CO)C(=O)NCCOCCOCCOCCOCCOCCNC(=O)c1cc(NC(=O)c2nc(NC(=O)c3cc(NC(=O)[C@@H](N)CCNC(=O)c4nc(NC(=O)c5cc(NC(=O)c6cc(NC(=O)c7nccn7C)cn6C)cn5C)cn4C)cn3C)cn2C)cn1C` [Compound 57]: the EC50 was over 500 nM.

For `CC(C)C[C@H](NC(=O)[C@H](C)NC(=O)[C@H](Cc1ccccc1)NC(=O)c1ccc(C(C)(C)C)cc1)C(=O)N[C@@H](CCCCN(C)C1CC2CCC1C2)C(=O)N[C@@H](CO)C(=O)NCCOCCOCCNC(=O)CCNC(=O)c1nc(NC(=O)c2cc(NC(=O)CCNC(=O)c3nc(NC(=O)CCCNC(=O)c4cc(NC(=O)c5nc(NC(=O)CCNC(=O)c6cc(NC(=O)c7nccn7C)cn6C)cn5C)cn4C)cn3C)cn2C)cn1C` (stereo partly drawn) [Compound 77], the EC50 was under 100 nM.

Consider `CCN(CC)CCCC[C@H](NC(=O)[C@H](CC(C)C)NC(=O)[C@H](C)NC(=O)[C@H](Cc1ccccc1)NC(=O)c1ccc(C(C)(C)C)cc1)C(=O)N[C@@H](CO)C(=O)NCCOCCOCCOCCOCCOCCNC(=O)CCNC(=O)c1cc(NC(=O)c2nc(NC(=O)CCNC(=O)c3cc(NC(=O)c4nc(NC(=O)CCCNC(=O)c5cc(NC(=O)c6nc(NC(=O)CCNC(=O)c7cc(NC(=O)c8nccn8C)cn7C)cn6C)cn5C)cn4C)cn3C)cn2C)cn1C` [Compound 135], for which the EC50 was over 500 nM.

Regarding `CCN(CC)CCCC[C@H](NC(=O)[C@H](CC(C)C)NC(=O)[C@H](C)NC(=O)[C@H](Cc1ccccc1)NC(=O)c1ccc(C(C)(C)C)cc1)C(=O)N[C@@H](CO)C(=O)NCCNC(=O)CCNC(=O)c1nc(NC(=O)c2cc(NC(=O)CCNC(=O)c3nc(NC(=O)CCCNC(=O)c4cc(NC(=O)c5nc(NC(=O)CCNC(=O)c6cc(NC(=O)c7nccn7C)cn6C)cn5C)cn4C)cn3C)cn2C)cn1C` [Compound 70], the EC50 is under 100 nM.

As for `CCN(CC)CCCC[C@H](NC(=O)[C@H](CC(C)C)NC(=O)[C@H](C)NC(=O)[C@H](Cc1ccccc1)NC(=O)c1ccc(C(C)(C)C)cc1)C(=O)N[C@@H](CO)C(=O)N1CCC(C#CC#CC2CCN(CCOCCOCCOCCNC(=O)CCNC(=O)c3nc(NC(=O)c4cc(NC(=O)CCNC(=O)c5nc(NC(=O)CCCNC(=O)c6cc(NC(=O)c7nc(NC(=O)CCNC(=O)c8cc(NC(=O)c9nccn9C)cn8C)cn7C)cn6C)cn5C)cn4C)cn3C)CC2)CC1` [Compound 180], the half-maximal effective concentration (EC50) was under 100 nM.

With `CCN(CC)CCCC[C@H](NC(=O)[C@H](CC(C)C)NC(=O)[C@H](C)NC(=O)[C@H](Cc1ccccc1)NC(=O)c1ccc(C(C)(C)C)cc1)C(=O)N[C@@H](CO)C(=O)NCCOCCOCCNC(=O)CCNC(=O)c1nc(NC(=O)c2cc(NC(=O)CCNC(=O)c3[nH]c(NC(=O)CCCNC(=O)c4cc(NC(=O)c5nc(NC(=O)CCNC(=O)c6cc(NC(=O)c7nccn7C)cn6C)cn5C)cn4C)cc3C)cn2C)cn1C` [Compound 64], the concentration for a half-maximal effect (EC50) is under 100 nM.

For `CCN(CC)CCCC[C@H](NC(=O)[C@H](CC(C)C)NC(=O)[C@H](C)NC(=O)[C@H](Cc1ccccc1)NC(=O)c1ccc(C)cc1)C(=O)N[C@@H](CO)C(=O)NCCOCCOCCOCCOCCOCCNC(=O)CCNC(=O)c1nc(NC(=O)c2cc(NC(=O)CCNC(=O)c3nc(NC(=O)CCCNC(=O)c4cc(NC(=O)c5nc(NC(=O)CCNC(=O)c6cc(NC(=O)c7nccn7C)cn6C)cn5C)cn4C)cn3C)cn2C)cn1C` [Compound 85], the EC50 was under 100 nM.

The same test, now with this note: Homo sapiens, Fibroblast; DM1 fibroblasts, 48 h treatment, 8-point dose response, 3 μM top dose; read-out: Foci Reduction in Fibroblast EC50, 48 h.
As for `CCN(CCN(C)CCOCCOCCOCCOCCOCCNC(=O)CCNC(=O)c1nc(NC(=O)c2cc(NC(=O)CCNC(=O)c3nc(NC(=O)CCCNC(=O)c4cc(NC(=O)c5nc(NC(=O)CCNC(=O)c6cc(NC(=O)c7nccn7C)cn6C)cn5C)cn4C)cn3C)cn2C)cn1C)C(=O)CNCc1cc(C(N)=O)ccn1` [Compound 163], the EC50 is over 500 nM.

For the compound `Cn1cc(NC(=O)c2nc(NC(=O)CCNC(=O)c3cc(NC(=O)c4nccn4C)cn3C)cn2C)cc1C(=O)NCCCC(=O)Nc1cn(C)c(C(=O)NCCC(=O)Nc2cc(C(=O)Nc3cn(C)c(C(=O)NCCC(=O)NCCOCCOCCOCCOCCOCCOCCOCCOCCOCCOCCN4CCC(C(=O)Nc5ncc(SCc6ncc(C(C)(C)C)o6)s5)CC4)n3)n(C)c2)n1` [Compound 17], the EC50 is over 500 nM.

As for `CN(C)[C@H]1CN(C2CCc3cccc(F)c32)C[C@@H]1c1ccc(N2CCN(C(=O)COCCOCCOCCOCCOCCNC(=O)CCNC(=O)c3nc(NC(=O)c4cc(NC(=O)CCNC(=O)c5nc(NC(=O)CCCNC(=O)c6cc(NC(=O)c7nc(NC(=O)CCNC(=O)c8cc(NC(=O)c9nccn9C)cn8C)cn7C)cn6C)cn5C)cn4C)cn3C)CC2)cc1` (stereo partly drawn) [Compound 146], the EC50 was over 500 nM.

For the compound `Cn1cc(NC(=O)c2cc(NC(=O)c3nc(NC(=O)c4cc(NC(=O)[C@@H](N)CCNC(=O)c5nc(NC(=O)CCNC(=O)c6cc(NC(=O)c7nccn7C)cn6C)cn5C)cn4C)cn3C)cn2C)cc1C(=O)NCCOCCOCCOCCOCCOCCOCCOCCOCCOCCOCCOCCOCCOCCOCCOCCN1CCC(C(=O)Nc2ncc(SCc3ncc(C(C)(C)C)o3)s2)CC1` [Compound 121], the half-maximal effective concentration (EC50) is over 500 nM.
